This is an account of results in ChEMBL document CHEMBL1629644, “Theileria apicoplast as a target for chemotherapy” (Antimicrob Agents Chemother, 2009).

Structures are written as SMILES.

The nature of assay [1]: Induction of apoptosis in bovine BL3 cells assessed as early apoptotic cells after 24 hrs by annexin V/propidium iodide staining-based FACS analysis. The format is functional, Bos taurus. The arrangement: concentration or dose not given beside the values. Background: In flow cytometry, cells or beads pass a laser one at a time.
Assay [2] can be described thus: Induction of apoptosis in bovine BL3 cells assessed as late apoptotic cells after 24 hrs by annexin V/propidium iodide staining-based FACS analysis. Set-up: concentration or dose not given beside the values. Format: functional, Bos taurus.
The nature of assay [3]: Induction of apoptosis in bovine BL3 cells assessed as viable cells after 24 hrs by annexin V/propidium iodide staining-based FACS analysis. The format is functional, Bos taurus. Set-up: concentration or dose not given beside the values.
Assay [4] in a line: Antiproliferative activity against Theileria parva-induced proliferation of bovine B lymphocyte assessed as inhibition of [3H]thymidine uptake after 48 hrs. To be noted: Bos taurus, B-cell. The format is functional.
Assay [5] is described as follows: Induction of apoptosis in bovine BL3 cells assessed as necrotic after 24 hrs by annexin V/propidium iodide staining-based FACS analysis. The arrangement: concentration or dose not given beside the values. Format: functional, Bos taurus.
The nature of assay [6]: Antiproliferative activity against Theileria parva-induced proliferation of bovine BL3 cells assessed as inhibition of [3H]thymidine uptake after 32 hrs. The format is functional, Bos taurus.

Broadly, the IC50 is the concentration needed to halve the response being measured. On to `O=C(O)c1cn(C2CC2)c2cc(N3CCNCC3)c(F)cc2c1=O` [CIPROFLOXACIN], for which the Activity in assay [1] was 1.03%; in assay [2], 0.25%; in assay [3] it was 98.63%; in assay [5], 0.03%. The concentration for half-maximal inhibition (IC50) in assay [4] came out at 123 µM.

For the compound `CCC[C@@H]1C[C@@H](C(=O)N[C@@H]([C@H]2O[C@H](SC)[C@H](O)[C@@H](O)[C@H]2O)[C@H](C)Cl)N(C)C1` [CLINDAMYCIN], the Activity came to 7.36% in assay [1], 0% in assay [2], 92.64% in assay [3] and 0% in assay [5]. The IC50 in assay [4] is more than 400 µM. For the same compound, the “inhibition (INH)” value in assay [6] worked out at 28%.

In the case of `CC(Oc1ccc(Oc2nc3ccc(Cl)cc3o2)cc1)C(=O)O` (stereo not drawn) [FENOXAPROP], the Activity in assay [1] was determined as 15.98%; in assay [2] it was 0.06%; in assay [3], 83.78%; in assay [5], 0.18%. For the same compound, the IC50 in assay [4] is 262 µM. In addition, the “inhibition (INH)” value in assay [6] is listed as more than 75%.

As for `CO[C@H]1/C=C/O[C@@]2(C)Oc3c(C)c(O)c4c(O)c(c(/C=N/N5CCN(C)CC5)c(O)c4c3C2=O)NC(=O)/C(C)=C\C=C\[C@H](C)[C@H](O)[C@@H](C)[C@@H](O)[C@@H](C)[C@H](OC(C)=O)[C@@H]1C` [RIFAMPIN], the Activity amounted to 2.43% in assay [1], 0% in assay [2], 97.57% in assay [3] and 0% in assay [5]. Further, the IC50 in assay [4] was 96 µM. In addition, the “inhibition (INH)” value in assay [6] is reported as more than 75%.

As for `CN[C@@H]1C[C@H]2O[C@@](C)([C@@H]1OC)n1c3ccccc3c3c4c(c5c6ccccc6n2c5c31)C(=O)NC4` [STAUROSPORINE], the Activity was determined as 23.83% in assay [1], 14.54% in assay [2], 61.57% in assay [3] and 0.08% in assay [5].

Take `Oc1cc(Cl)ccc1Oc1ccc(Cl)cc1Cl` [TRICLOSAN]: the Activity in assay [1] turned out to be 44.02%; in assay [2] it was 9.98%; in assay [3] it was 45.87%; in assay [5], 0.13%. For the same compound, in assay [4], the half-inhibitory concentration (IC50) stood at 20 µM. Moreover, the “inhibition (INH)” value in assay [6] is reported as more than 75%.
